Assay results published in PubChem BioAssay (NCI).
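Cultured in 96-well plates, cells were exposed to test compound for 48 hours across five concentrations. Abbreviation: GI50, concentration required for 50% inhibition of growth. TGI: total growth inhibition.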

What was measured:
Experiment in all cases: DTP human tumour cell line panel, 48 h
MALME-3M melanoma = test system: MALME-3M melanoma
KM12 colon = test system: KM12 colon
NCI-H460 lung = test system: NCI-H460 lung
OVCAR-4 ovarian = test system: OVCAR-4 ovarian
UACC-62 melanoma = test system: UACC-62 melanoma
NCI-H522 lung = test system: NCI-H522 lung
T-47D breast = test system: T-47D breast
LOX IMVI melanoma = test system: LOX IMVI melanoma
SF-295 CNS = test system: SF-295 CNS
SK-MEL-28 melanoma = test system: SK-MEL-28 melanoma
RXF 393 renal = test system: RXF 393 renal
OVCAR-8 ovarian = test system: OVCAR-8 ovarian
K-562 leukemia = test system: K-562 leukemia
MCF7 breast = test system: MCF7 breast
786-0 renal = test system: 786-0 renal
MDA-MB-231 breast = test system: MDA-MB-231 breast
OVCAR-5 ovarian = test system: OVCAR-5 ovarian
HOP-92 NSCLC = test system: HOP-92 NSCLC
A549 NSCLC = test system: A549 NSCLC
U251 CNS = test system: U251 CNS
HCT-116 colon = test system: HCT-116 colon
SN12C renal = test system: SN12C renal
PC-3 prostate = test system: PC-3 prostate
HT29 colon = test system: HT29 colon
DU-145 prostate = test system: DU-145 prostate
CAKI-1 renal = test system: CAKI-1 renal
SF-268 CNS = test system: SF-268 CNS
SK-OV-3 ovarian = test system: SK-OV-3 ovarian
HS 578T breast = test system: HS 578T breast
SF-539 CNS = test system: SF-539 CNS
SNB-19 CNS = test system: SNB-19 CNS
NCI/ADR-RES ovarian = test system: NCI/ADR-RES ovarian
TK-10 renal = test system: TK-10 renal
SR leukemia = test system: SR leukemia
BT-549 breast = test system: BT-549 breast
MDA-MB-468 breast = test system: MDA-MB-468 breast
M14 melanoma = test system: M14 melanoma
NCI-H226 lung = test system: NCI-H226 lung
CCRF-CEM leukemia = test system: CCRF-CEM leukemia
IGROV1 ovarian = test system: IGROV1 ovarian
SNB-75 CNS = test system: SNB-75 CNS
UO-31 renal = test system: UO-31 renal
MOLT-4 leukemia = test system: MOLT-4 leukemia
NCI-H23 lung = test system: NCI-H23 lung
EKVX NSCLC = test system: EKVX NSCLC
SK-MEL-5 melanoma = test system: SK-MEL-5 melanoma
HL-60(TB) leukemia = test system: HL-60(TB) leukemia
OVCAR-3 ovarian = test system: OVCAR-3 ovarian
A498 renal = test system: A498 renal
MDA-MB-435 = test system: MDA-MB-435
HCC-2998 colon = test system: HCC-2998 colon
COLO 205 colon = test system: COLO 205 colon
SW-620 colon = test system: SW-620 colon
HOP-62 NSCLC = test system: HOP-62 NSCLC
HCT-15 colon = test system: HCT-15 colon
ACHN renal = test system: ACHN renal
SK-MEL-2 melanoma = test system: SK-MEL-2 melanoma
UACC-257 melanoma = test system: UACC-257 melanoma
RPMI-8226 leukemia = test system: RPMI-8226 leukemia

O=C(/C=C/Nc1ccc(Cl)cc1)c1ccc2c(c1)Nc1ccccc1S2
GI50 (MALME-3M melanoma): 11.4 µM
TGI (MALME-3M melanoma): 24.7 µM
GI50 (KM12 colon): 14.6 µM
TGI (KM12 colon): 55.2 µM
GI50 (NCI-H460 lung): 3.77 µM
TGI (NCI-H460 lung): 14.7 µM
GI50 (OVCAR-4 ovarian): 2.84 µM
TGI (OVCAR-4 ovarian): 10.4 µM
GI50 (UACC-62 melanoma): 10.2 µM
TGI (UACC-62 melanoma): 25.7 µM
GI50 (NCI-H522 lung): 5.1 µM
TGI (NCI-H522 lung): 23.9 µM
GI50 (T-47D breast): 12.9 µM
TGI (T-47D breast): 56.4 µM
GI50 (LOX IMVI melanoma): 10.1 µM
TGI (LOX IMVI melanoma): 23.7 µM
GI50 (SF-295 CNS): 4.19 µM
TGI (SF-295 CNS): 17.1 µM
GI50 (SK-MEL-28 melanoma): 24 µM
TGI (SK-MEL-28 melanoma): 79.1 µM
GI50 (RXF 393 renal): 14.4 µM
TGI (RXF 393 renal): 30.5 µM
GI50 (OVCAR-8 ovarian): 4.38 µM
TGI (OVCAR-8 ovarian): 17.8 µM
GI50 (K-562 leukemia): 18.5 µM
TGI (K-562 leukemia): > 100 µM
GI50 (MCF7 breast): 6.64 µM
TGI (MCF7 breast): 23.9 µM
GI50 (786-0 renal): 11 µM
TGI (786-0 renal): 23.3 µM
GI50 (MDA-MB-231 breast): 13.3 µM
TGI (MDA-MB-231 breast): 27.9 µM
GI50 (OVCAR-5 ovarian): 15.9 µM
TGI (OVCAR-5 ovarian): 68.2 µM
GI50 (HOP-92 NSCLC): 12.6 µM
TGI (HOP-92 NSCLC): 29.9 µM
GI50 (A549 NSCLC): 6.43 µM
TGI (A549 NSCLC): 23.9 µM
GI50 (U251 CNS): 6.88 µM
TGI (U251 CNS): 21.3 µM
GI50 (HCT-116 colon): 10.3 µM
TGI (HCT-116 colon): 29.9 µM
GI50 (SN12C renal): 13.7 µM
TGI (SN12C renal): 66.5 µM
GI50 (PC-3 prostate): 7.55 µM
TGI (PC-3 prostate): 25.1 µM
GI50 (HT29 colon): 13.1 µM
TGI (HT29 colon): 32 µM
GI50 (DU-145 prostate): 8.43 µM
TGI (DU-145 prostate): 27.7 µM
GI50 (CAKI-1 renal): 10.1 µM
TGI (CAKI-1 renal): 24.6 µM
GI50 (SF-268 CNS): 6.05 µM
TGI (SF-268 CNS): 25.1 µM
GI50 (SK-OV-3 ovarian): 12.9 µM
TGI (SK-OV-3 ovarian): 29.5 µM
GI50 (HS 578T breast): 3.42 µM
TGI (HS 578T breast): 19 µM
GI50 (SF-539 CNS): 8.84 µM
TGI (SF-539 CNS): 21.5 µM
GI50 (SNB-19 CNS): 12.2 µM
TGI (SNB-19 CNS): 29.3 µM
GI50 (NCI/ADR-RES ovarian): 5.71 µM
TGI (NCI/ADR-RES ovarian): 20.1 µM
GI50 (TK-10 renal): 13.3 µM
TGI (TK-10 renal): 28.8 µM
GI50 (SR leukemia): 21.2 µM
TGI (SR leukemia): > 100 µM
GI50 (BT-549 breast): 9.67 µM
TGI (BT-549 breast): 33.8 µM
GI50 (MDA-MB-468 breast): 3.44 µM
TGI (MDA-MB-468 breast): 14.1 µM
GI50 (M14 melanoma): 14.6 µM
TGI (M14 melanoma): 40.2 µM
GI50 (NCI-H226 lung): 11.6 µM
TGI (NCI-H226 lung): 37 µM
GI50 (CCRF-CEM leukemia): 16.9 µM
TGI (CCRF-CEM leukemia): 69.2 µM
GI50 (IGROV1 ovarian): 13.2 µM
TGI (IGROV1 ovarian): 34.6 µM
GI50 (SNB-75 CNS): 1.96 µM
TGI (SNB-75 CNS): 6.85 µM
GI50 (UO-31 renal): 16.9 µM
TGI (UO-31 renal): 34.3 µM
GI50 (MOLT-4 leukemia): 17.6 µM
TGI (MOLT-4 leukemia): > 100 µM
GI50 (NCI-H23 lung): 5.34 µM
TGI (NCI-H23 lung): 20.4 µM
GI50 (EKVX NSCLC): 14.6 µM
TGI (EKVX NSCLC): 36.8 µM
GI50 (SK-MEL-5 melanoma): 12.4 µM
TGI (SK-MEL-5 melanoma): 28.4 µM
GI50 (HL-60(TB) leukemia): 69.8 µM
TGI (HL-60(TB) leukemia): > 100 µM
GI50 (OVCAR-3 ovarian): 11.4 µM
TGI (OVCAR-3 ovarian): 30.5 µM
GI50 (A498 renal): 18.4 µM
TGI (A498 renal): 42.5 µM
GI50 (MDA-MB-435): 11.3 µM
TGI (MDA-MB-435): 39.4 µM
GI50 (HCC-2998 colon): 13.2 µM
TGI (HCC-2998 colon): 36.8 µM
GI50 (COLO 205 colon): 11.9 µM
TGI (COLO 205 colon): 28.6 µM
GI50 (SW-620 colon): 10.2 µM
TGI (SW-620 colon): 24.7 µM
GI50 (HOP-62 NSCLC): 4.15 µM
TGI (HOP-62 NSCLC): 17.1 µM
GI50 (HCT-15 colon): 14.9 µM
TGI (HCT-15 colon): > 100 µM
GI50 (ACHN renal): 11 µM
TGI (ACHN renal): 27.8 µM
GI50 (SK-MEL-2 melanoma): 13.6 µM
TGI (SK-MEL-2 melanoma): 32.8 µM
GI50 (UACC-257 melanoma): 18.7 µM
TGI (UACC-257 melanoma): 59.9 µM
GI50 (RPMI-8226 leukemia): 17.7 µM
TGI (RPMI-8226 leukemia): > 100 µM
